Data taken from the OPERA property sets (Mansouri et al. 2018).

Settings: not given
Work on `CN1CCCCC1` yielded a boiling point of 107 °C, a log10 Henry constant (atm·m³/mol) of -4.46 and a log10 vapour pressure (mmHg) of 1.29. For the same molecule, the ready biodegradability was “not readily biodegradable”.
With `CCCCC` the log10 Henry constant (atm·m³/mol) was 0.0969, the log10 Koa was 1.96 and the log10 biodegradation half-life (days) was 0.699. The log10 vapour pressure (mmHg) was 2.71, the melting point was -130 °C and the ready biodegradability was “readily biodegradable”.
`C=C(C)CN(CC)c1c([N+](=O)[O-])cc(C(F)(F)F)cc1[N+](=O)[O-]` showed a log10 Koc (L/kg) of 3.6, a log10 vapour pressure (mmHg) of -4.06 and a melting point of 55.5 °C.
In the case of `BrCc1ccccc1CBr`, the melting point is reported as 95 °C.
With `CCN(CC)C(C)=O` the boiling point was 186 °C and the log10 Koc (L/kg) was 1.84.
In the case of `N#CCc1ccccc1Br`, the melting point is reported as 1 °C.
For `C=C=C(C)C`, the boiling point was 40.8 °C, the log10 vapour pressure (mmHg) was 2.63 and the melting point was -114 °C.
Work on `CCC(=O)Oc1ccc(/C(CC)=C(\CC)c2ccc(OC(=O)CC)cc2)cc1` yielded a melting point of 104 °C.
For `ClC1=C(Cl)C(Cl)(C2(Cl)C(Cl)=C(Cl)C(Cl)=C2Cl)C(Cl)=C1Cl`, the log10 Koc (L/kg) was 4.52, the log10 vapour pressure (mmHg) was -5.66 and the melting point was 122 °C.
Work on `CC1=NCCO1` yielded a boiling point of 111 °C.
In the case of `NC(=O)CC(N)C(=O)O` (stereo not drawn), the melting point is reported as 234 °C.
Molecule `O=C1OCc2ccccc21` has a boiling point of 290 °C, a log10 vapour pressure (mmHg) of -2.7 and a melting point of 75 °C. The ready biodegradability was “readily biodegradable”.
Molecule `C=C(F)F` has a boiling point of -85.7 °C, a log10 vapour pressure (mmHg) of 4.48 and a melting point of -144 °C.
With `Cc1cc(C)on1` the boiling point was 143 °C.
With `CC(=O)OCC1CCCO1` (stereo not drawn) the boiling point was 193 °C.
In the case of `C[Si]1(c2ccccc2)O[Si](C)(c2ccccc2)O[Si](C)(c2ccccc2)O[Si](C)(c2ccccc2)O1` (stereo not drawn), the melting point is reported as 99 °C.
For `O=Cc1cccc(Oc2ccccc2)c1`, the ready biodegradability was “not readily biodegradable”.
For `Cc1cc(O)c(Cl)cc1Cl`, the boiling point was 234 °C and the melting point was 73 °C.
In the case of `Cc1cc(C)c(C)cn1`, the boiling point is reported as 188 °C.
In the case of `CCCSC(C)C`, the boiling point is reported as 132 °C.
`Nc1ccc([N+](=O)[O-])cn1` showed a melting point of 187 °C.
With `O/N=C\c1ccccc1` the boiling point was 200 °C and the melting point was 36.5 °C.
For `CC(=O)Nc1ccc(Cl)c(Cl)c1`, the log10 Koc (L/kg) was 2.34.
For `O=C(O)c1cccc(C(=O)O)c1`, the melting point was 347 °C and the ready biodegradability was “readily biodegradable”.
For `C/C=C1/C[C@@H](C)[C@](O)(CO)C(=O)OCC2=CCN3CC[C@@H](OC1=O)[C@@H]23`, the melting point was 212 °C.
`CCCCc1ccc(C(=O)O)cc1` gave a melting point of 106 °C.
In the case of `CC/C=C/CCCCC`, the boiling point is reported as 148 °C.
Molecule `O=[N+]([O-])c1ccccc1Br` has a boiling point of 258 °C and a melting point of 43 °C.
With `O=c1cc(O)cc[nH]1` the melting point was 278 °C.
With `c1ccc(C2CC2)cc1` the boiling point was 174 °C and the melting point was -31 °C.
Molecule `O=C(O)c1ccc(I)cc1` has a melting point of 270 °C.
Work on `C=CC(=O)OCCC` yielded a log10 vapour pressure (mmHg) of 1.16.
Molecule `Cc1ccc2sc(C)nc2c1` has a melting point of 38 °C.
With `Cc1cccc2ncccc12` the boiling point was 263 °C and the melting point was 19 °C.
In the case of `COc1cc(OC)nc(Oc2cccc(Oc3nc(OC)cc(OC)n3)c2C(=O)ON=C(c2ccccc2)c2ccccc2)n1`, the melting point is reported as 129 °C.
Work on `c1ccc(-n2ccnc2)cc1` yielded a boiling point of 276 °C and a melting point of 13 °C.
For `CC(C)=C1CCCC(C)C1` (stereo not drawn), the boiling point was 174 °C.
Work on `C=CC(Cl)(Cl)Cl` yielded a boiling point of 114 °C and a melting point of -30 °C.
`CCCCc1ccc(N)cc1` gave a boiling point of 261 °C.
In the case of `c1ccc(-c2cccnc2)cc1`, the boiling point is reported as 272 °C and the melting point is reported as 164 °C.
`FC=C(F)F` showed a boiling point of -51 °C.
For `CC(=O)c1cc2ccccc2o1`, the melting point was 76 °C.
`Nc1c2ccccc2nc2ccccc12` gave a melting point of 241 °C.
`ClC=CBr` showed a boiling point of 84.6 °C and a melting point of -86.7 °C.
`OCC(O)COc1ccc(Cl)cc1` (stereo not drawn) gave a melting point of 78 °C.
Work on `CC(C)(C)c1ccc(O)c(C(C)(C)C)c1` yielded a boiling point of 264 °C, a log10 vapour pressure (mmHg) of -2.32 and a melting point of 56.5 °C. For the same molecule, the ready biodegradability was “not readily biodegradable”.
In the case of `C1CCC2CCCCC2C1` (stereo not drawn), the boiling point is reported as 180 °C, the log10 Koc (L/kg) is reported as 3.67 and the log10 vapour pressure (mmHg) is reported as 0.114. For the same molecule, the melting point was -38.7 °C and the ready biodegradability was “not readily biodegradable”.
`O[C@H]1[C@H]2c3cc4c(cc3CN3CCC(=C[C@@H]1O)[C@H]23)OCO4` showed a melting point of 280 °C.
With `Oc1cccc(-c2ccccc2)c1` the melting point was 78 °C.
In the case of `CCOc1cc(OP(=S)(OC)OC)nc(CC)n1`, the log10 vapour pressure (mmHg) is reported as -4.1 and the melting point is reported as -3.35 °C.
In the case of `C/C=C/CC(C)C`, the boiling point is reported as 88.1 °C and the melting point is reported as -124 °C.
Work on `O=c1ccoc2ccccc12` yielded a melting point of 59 °C.
In the case of `O=C1C=CC(=O)N1c1ccc(Cc2ccc(N3C(=O)C=CC3=O)cc2)cc1`, the ready biodegradability is reported as “not readily biodegradable”.
`CCNc1nc(NCC)nc(OC)n1` showed a log10 Koc (L/kg) of 2.34 and a log10 vapour pressure (mmHg) of -5.62.
In the case of `FC(F)(F)S(F)(F)(F)(F)F`, the boiling point is reported as -20 °C and the melting point is reported as -87 °C.
`Nc1c(Cl)c(Cl)nc(C(=O)O)c1Cl` gave a log10 Koc (L/kg) of 1.3, a log10 vapour pressure (mmHg) of -10.1 and a melting point of 218 °C. For the same molecule, the ready biodegradability was “not readily biodegradable”.
With `O=C(O)c1ccc(NS(=O)(=O)Cc2ccccc2)cc1` the melting point was 230 °C.
With `CCCCCCCCCCCCCCCCOC(=O)C(C)O` (stereo not drawn) the melting point was 41 °C.
`Cl[Si](Cl)(Cl)CCc1ccccc1` gave a boiling point of 242 °C.
Work on `CCCCOC(=O)C(C)O` (stereo not drawn) yielded a boiling point of 186 °C, a log10 vapour pressure (mmHg) of -0.398 and a melting point of -28 °C.
In the case of `CCC(C(=O)NC(N)=O)c1ccccc1` (stereo not drawn), the melting point is reported as 162 °C.
Molecule `C1=CCC=C1` has a boiling point of 41 °C, a log10 vapour pressure (mmHg) of 2.64 and a melting point of -85 °C.
Work on `S=C(SN1CCOCC1)N1CCOCC1` yielded a melting point of 139 °C.
Molecule `CC(C)OC(=O)c1ccccc1` has a boiling point of 216 °C.
`O=C(Nc1ccc(Br)cc1)c1cc(Br)cc(Br)c1O` showed a melting point of 227 °C.
In the case of `C(CCOCC1CO1)COCC1CO1` (stereo not drawn), the boiling point is reported as 266 °C and the ready biodegradability is reported as “not readily biodegradable”.
`OC(CCN1CCCC1)(c1ccccc1)C1CCCCC1` (stereo not drawn) showed a melting point of 86 °C.
`NC(=O)OCC(Cl)(Cl)Cl` showed a melting point of 64 °C.
Molecule `CCOc1ccc(C=O)cc1OC` has a melting point of 64.5 °C.
With `COc1ccc2c3c1O[C@H]1[C@@H](O)CC=C4[C@@H](C2)N(C)CC[C@]431` the melting point was 128 °C.
With `Clc1cc2oc3cc(Cl)c(Cl)cc3c2cc1Cl` the log10 Henry constant (atm·m³/mol) was -4.78, the log10 Koa was 10 and the melting point was 227 °C.
Molecule `CCOP(=O)(NC(C)C)Oc1ccc(S(C)(=O)=O)c(C)c1` (stereo not drawn) has a log10 Koc (L/kg) of 1.64.
`c1ccc(C(=C(c2ccccc2)c2ccccc2)c2ccccc2)cc1` gave a boiling point of 420 °C and a melting point of 225 °C.
`Nc1ncccn1` showed a melting point of 128 °C.
For `CC(O)(c1ccc(Cl)cc1)c1ccc(Cl)cc1`, the melting point was 70 °C.
Molecule `CCCCCCCCCCCCCCCCOP(=O)(O)OCCCCCCCCCCCCCCCC` has a melting point of 74.5 °C.
With `C=CCC1(C(C)C)C(=O)NC(=O)NC1=O` the melting point was 141 °C.
`Cc1nnc(C)s1` gave a boiling point of 202 °C and a melting point of 65 °C.
Molecule `c1ccc2[nH]ccc2c1` has a boiling point of 254 °C, a log10 vapour pressure (mmHg) of -1.91 and a melting point of 52.5 °C. The ready biodegradability was “readily biodegradable”.
Work on `O=C(O)C(O)c1ccc(Br)cc1` (stereo not drawn) yielded a melting point of 118 °C.
Molecule `CCCCCCCCCCCCc1ccccc1` has a boiling point of 328 °C, a log10 vapour pressure (mmHg) of -4.29 and a melting point of 3 °C. The ready biodegradability was “readily biodegradable”.
Work on `O=C(O)c1cccc(Cl)c1Cl` yielded a log10 vapour pressure (mmHg) of -3.64 and a melting point of 169 °C.
Molecule `ClC(Cl)=C(c1ccc(Cl)cc1)c1ccccc1Cl` has a log10 Koc (L/kg) of 5.49 and a log10 vapour pressure (mmHg) of -5.21.
`Nc1ccc(Sc2ccc(N)cc2)cc1` gave a boiling point of 361 °C, a log10 Koc (L/kg) of 2.04 and a melting point of 108 °C.
In the case of `COC(=O)CCCC(=O)OC`, the boiling point is reported as 214 °C, the log10 vapour pressure (mmHg) is reported as -0.745 and the melting point is reported as -42.5 °C. The ready biodegradability was “readily biodegradable”.
With `CCNc1cccc(C)c1` the boiling point was 221 °C.
Work on `C1CCC2C(C1)CCC1C3CCCCC3CCC21` (stereo not drawn) yielded a boiling point of 353 °C and a melting point of 115 °C.
For `OCc1cc(Cl)cc(Cl)c1`, the melting point was 80.5 °C.
In the case of `COc1ccc(C=CC(=O)c2ccccc2)cc1`, the melting point is reported as 79 °C.
With `CC(C)(SC(=O)N1CCCCC1)c1ccccc1` the log10 vapour pressure (mmHg) was -5.4 and the melting point was 39 °C.
For `O=C(O)CO`, the log10 vapour pressure (mmHg) was -1.7, the melting point was 79.5 °C and the ready biodegradability was “readily biodegradable”.
Work on `Cc1c(C)n(C)c2ccccc12` yielded a boiling point of 283 °C and a melting point of 18 °C.
`CCNC(=O)C1CC(C)CCC1C(C)C` (stereo not drawn) showed a melting point of 88 °C.
For `CCC(C)CCC(C)C` (stereo not drawn), the boiling point was 136 °C and the log10 biodegradation half-life (days) was 0.778.
In the case of `COC`, the boiling point is reported as -24.8 °C, the log10 Koa is reported as 1.37 and the log10 vapour pressure (mmHg) is reported as 3.65. For the same molecule, the melting point was -142 °C and the ready biodegradability was “not readily biodegradable”.
Molecule `CC(C)=CCCc1ccoc1` has a boiling point of 186 °C.
`Clc1ccccc1-c1c(Cl)cccc1Cl` showed a log10 Henry constant (atm·m³/mol) of -3.64.
`FC(F)(F)C(F)(F)C(F)(F)C(F)(F)C(F)(F)C(F)(F)C(F)(F)C(F)(F)C(F)(F)Br` showed a boiling point of 159 °C.
Molecule `Clc1cc(-c2c(Cl)cccc2Cl)c(Cl)c(Cl)c1Cl` has a log10 Henry constant (atm·m³/mol) of -4.41.
Work on `COC1(C)CC(c2ccccc2)c2c(c3ccccc3oc2=O)O1` (stereo not drawn) yielded a melting point of 166 °C.
With `FC(F)CC(F)(F)F` the boiling point was 40 °C, the log10 vapour pressure (mmHg) was 3.05 and the melting point was -102 °C.
For `O=C1c2ccccc2-c2ccccc21`, the boiling point was 342 °C and the melting point was 84 °C.
`CC1(C)[C@H](C(=O)O[C@H](C#N)c2cccc(Oc3ccccc3)c2)[C@@H]1C=C(Br)Br` showed a log10 vapour pressure (mmHg) of -7.82 and a melting point of 100 °C.
In the case of `CCC#CCCCCC(=O)O`, the melting point is reported as 14 °C.

Same assay, conditions: fish
Molecule `CN1CCCCC1` has a log10 BCF of 0.65.
Molecule `CC(C)(C)c1ccc(O)c(C(C)(C)C)c1` has a log10 BCF of 2.4 and a log10 biotransformation half-life (days) of -0.37.
For `C1CCC2CCCCC2C1` (stereo not drawn), the log10 BCF was 3.25.
In the case of `Clc1cc2oc3cc(Cl)c(Cl)cc3c2cc1Cl`, the log10 BCF is reported as 3.61 and the log10 biotransformation half-life (days) is reported as 0.56.
`Clc1ccccc1-c1c(Cl)cccc1Cl` showed a log10 biotransformation half-life (days) of 2.5.
With `CC1(C)[C@H](C(=O)O[C@H](C#N)c2cccc(Oc3ccccc3)c2)[C@@H]1C=C(Br)Br` the log10 BCF was 2.51 and the log10 biotransformation half-life (days) was 0.51.
